Experimental findings from patent publication US20120220581A1, “IMIDAZO[1,2-b]PYRIDAZINE DERIVATIVES AND THEIR USE AS PDE10 INHIBITORS” (Janssen-Cilag, S.A., priority 2009, published 2012) are described below.

The target of assay [1] is T1, Rat recombinant PDE10A (rPDE10A2) (Rattus norvegicus, UniProt Q9QYJ6).
T1 construct: inferred from the Ni metal chelate purification; made in house; host or cells: Sf9 insect cells (baculovirus)
T1 sequence (Q9QYJ6 1-794): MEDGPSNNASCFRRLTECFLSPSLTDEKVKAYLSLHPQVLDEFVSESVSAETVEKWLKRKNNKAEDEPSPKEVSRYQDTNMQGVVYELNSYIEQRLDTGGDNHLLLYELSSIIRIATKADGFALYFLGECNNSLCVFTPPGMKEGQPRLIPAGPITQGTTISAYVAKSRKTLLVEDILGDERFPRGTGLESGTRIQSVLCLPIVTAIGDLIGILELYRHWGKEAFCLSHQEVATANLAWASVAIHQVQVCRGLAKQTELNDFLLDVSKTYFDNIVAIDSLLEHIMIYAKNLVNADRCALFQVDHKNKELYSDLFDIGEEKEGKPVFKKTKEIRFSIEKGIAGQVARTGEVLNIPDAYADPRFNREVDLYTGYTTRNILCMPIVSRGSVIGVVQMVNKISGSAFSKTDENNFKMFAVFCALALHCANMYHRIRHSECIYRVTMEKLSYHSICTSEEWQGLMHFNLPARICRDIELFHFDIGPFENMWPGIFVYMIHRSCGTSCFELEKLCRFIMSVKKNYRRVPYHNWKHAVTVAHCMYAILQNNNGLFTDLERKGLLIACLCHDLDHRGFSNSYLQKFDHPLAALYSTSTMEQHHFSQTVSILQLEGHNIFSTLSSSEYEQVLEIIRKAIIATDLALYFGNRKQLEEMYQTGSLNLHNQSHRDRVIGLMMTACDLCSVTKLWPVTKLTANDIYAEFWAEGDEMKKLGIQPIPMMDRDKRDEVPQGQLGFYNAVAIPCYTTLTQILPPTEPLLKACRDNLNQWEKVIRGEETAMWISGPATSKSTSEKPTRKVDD
Briefly: In vitro assay PDE10A (SPA, 3H-cAMP). Conditions: pIC50 corresponds to the −log IC50 expressed in mol/L; read-out: PDE10A2 pIC50 (converted). Type of assay: biochemical. On the procedure: Rat recombinant PDE10A (rPDE10A2) was expressed in Sf9 cells using a recombinant rPDE10A baculovirus construct. Cells were harvested after 48 h of infection and the rPDE10A protein was purified by metal chelate chromatography on Ni-sepharose 6FF. Tested compounds were dissolved and diluted in 100% DMSO to a concentration 100 fold of the final concentration in the assay. Compound dilutions (0.4 μl) were added in 384 well plates to 20 μl of incubation buffer (50 mM Tris pH 7.8, 8.3 mM MgCl2, 1.7 mM EGTA). 10 μl of rPDE10A enzyme in incubation buffer was added and the reaction was started by addition of 10 μl substrate to a final concentration of 60 nM cAMP and 0.008 μCi ^3H-cAMP. The reaction was incubated for 60 minutes at room temperature. […] After sedimentation of the beads during 30 minutes the radioactivity was measured in a Perkin Elmer Topcount scintillation counter and results were expressed as cpm. For blanc values the enzyme was omitted from the reaction and replaced by incubation buffer. Control values were obtained by addition of a final concentration of 1% DMSO instead of compound. The same assay principle is applied for the measurement of the affinity of the compound for other members of the PDE family with appropriate modifications in incubation buffer, substrate concentration, incubation time and stop solution.

Assay [2] concerns apomorphine-induced stereotypy in rats. Put plainly: Apomorphine-induced stereotypy in rats (APO). It is filed as in vivo. Conditions: Rattus norvegicus, n.d.: found not active at threshold dose 2.5 mg/kg or 10 mg/kg (a). On the procedure:
Apomorphine (1.0 mg/kg, i.v.)-induced stereotypy (compulsive sniffing, licking, chewing) was scored every 5 min over the first hour after injection of apomorphine, following a 1 hour interval pre-treatment with the test compound. The score system was: (3) pronounced, (2) moderate, (1) slight, and (0) absent.

[3] abbreviates: po, * not soluble, tested orally as a suspension.

Some results are limits rather than exact numbers.

Take `COCCCc1ccc(-c2c(C)nc3c(N4CCOCC4)ccnn23)cn1` [compound 2, 3-[6-(3-methoxypropyl)-3-pyridinyl]-2-methyl-8-(4-morpholinyl)-imidazo[1,2-b]pyridazine]: the IC50 in assay [1] was 46.8 nM. The ED50 – broadly, the midpoint of the dose-response relation – in assay [2] (not further tested) was over 2.5 mg/kg.

As to `COCC(C)(C)c1ccc(-c2c(C)nc3c(N4CCOCC4)ccnn23)cn1` [compound 4, 3-[6-(2-methoxy-1,1-dimethylethyl)-3-pyridinyl]-2-methyl-8-(4-morpholinyl)-imidazo[1,2-b]pyridazine], in assay [1], the IC50 was 40.7 nM. Also, the ED50 in assay [2] (not further tested) is over 2.5 mg/kg.

On to `CCOC(C)(C)c1ccc(-c2c(C)nc3c(N4CCOCC4)ccnn23)cn1` [compound 5, 3-[6-(1-ethoxy-1-methylethyl)-3-pyridinyl]-2-methyl-8-(4-morpholinyl)-imidazo[1,2-b]pyridazine], for which the IC50 in assay [1] is 19.1 nM. This compound returned an ED50 in assay [2] (not further tested) of over 2.5 mg/kg.

For `COC(C)(C)c1ccc(-c2c(C)nc3c(N4CCOCC4)ccnn23)cn1` [compound 6, 3-[6-(1-methoxy-1-methylethyl)-3-pyridinyl]-2-methyl-8-(4-morpholinyl)-imidazo[1,2-b]pyridazine], the IC50 in assay [1] was 23.4 nM. The ED50 in assay [2] (not further tested) was over 2.5 mg/kg.

Take `COCCOc1ncc(-c2c(C)nc3c(-c4ccncc4)ccnn23)cc1C` [compound 8, 3-[6-(2-methoxyethoxy)-5-methyl-3-pyridinyl]-2-methyl-8-(4-pyridinyl)-imidazo[1,2-b]pyridazine]: the IC50 in assay [1] is 162 nM. The compound also gave an ED50 in assay [2] (not further tested) of over 2.5 mg/kg.

As for `COCCOc1ccc(-c2c(C)nc3c(-c4cccnc4)ccnn23)cn1` [compound 9, 3-[6-(2-methoxyethoxy)-3-pyridinyl]-2-methyl-8-(3-pyridinyl)-imidazo[1,2-b]pyridazine], the IC50 in assay [1] was 112 nM. In assay [2] (not further tested), this compound showed an ED50 of over 2.5 mg/kg.

`COCCc1ccc(-c2cnc3c(N4CCOCC4)ccnn23)cn1` [compound 11, 3-[6-(2-methoxyethyl)-3-pyridinyl]-8-(4-morpholinyl)-imidazo[1,2-b]pyridazine]: the IC50 in assay [1] is 195 nM. Moreover, in assay [2] (not further tested), the ED50 was over 2.5 mg/kg.

As to `COCCc1ccc(-c2c(OC)nc3c(N4CCOCC4)ccnn23)cn1` [compound 12, 2-methoxy-3-[6-(2-methoxyethyl)-3-pyridinyl]-8-(4-morpholinyl)-imidazo[1,2-b]pyridazine], the IC50 in assay [1] is 224 nM. Besides, in assay [2] (not further tested), the ED50 is over 2.5 mg/kg.

As to `COCCc1ccc(-c2c(C)nc3c(N4CCOCC4)cc(C4CC4)nn23)cn1` [compound 13, 6-cyclopropyl-3-[6-(2-methoxyethyl)-3-pyridinyl]-2-methyl-8-(4-morpholinyl)-imidazo[1,2-b]pyridazine], the IC50 in assay [1] is 195 nM. The compound also had an ED50 in assay [2] (not further tested) of over 2.5 mg/kg.

As for `COCCc1ccc(-c2c(C)nc3c(-c4ccncc4)cc(C4CC4)nn23)cn1` [compound 14, 6-cyclopropyl-3-[6-(2-methoxyethyl)-3-pyridinyl]-2-methyl-8-(4-pyridinyl)-imidazo[1,2-b]pyridazine], in assay [1], the IC50 is 120 nM. In addition, the ED50 in assay [2] (not further tested) was over 2.5 mg/kg.

`COCCc1ccc(-c2c(C3CC3)nc3c(N4CCOCC4)cc(C)nn23)cn1` [compound 15, 2-cyclopropyl-3-[6-(2-methoxyethyl)-3-pyridinyl]-6-methyl-8-(4-morpholinyl)-imidazo[1,2-b]pyridazine]: in assay [1], the IC50 was 302 nM. The same compound yielded an ED50 in assay [2] (setting [3]) of over 2.5 mg/kg.

For `CCOCc1ccc(-c2c(C)nc3c(N4CCOCC4)ccnn23)cn1` [compound 17, 3-[6-(ethoxymethyl)-3-pyridinyl]-2-methyl-8-(4-morpholinyl)-imidazo[1,2-b]pyridazine], the IC50 in assay [1] was 55 nM. In assay [2] (setting [3]), this compound gave an ED50 of over 2.5 mg/kg.

As to `COCCc1ccc(-c2c(C)nc3c(-c4ccncc4)ccnn23)cn1` [compound 20, 3-[6-(2-methoxyethyl)-3-pyridinyl]-2-methyl-8-(4-pyridinyl)-imidazo[1,2-b]pyridazine], the IC50 in assay [1] was 27.5 nM. In addition, the ED50 in assay [2] (not further tested) is over 2.5 mg/kg.

`COCCc1ccc(-c2c(C)nc3c(N4CCOCC4)cc(C)nn23)cn1` [compound 23, 3-[6-(2-methoxyethyl)-3-pyridinyl]-2,6-dimethyl-8-(4-morpholinyl)-imidazo[1,2-b]pyridazine]: the IC50 in assay [1] is 112 nM. Moreover, in assay [2] (not further tested), the ED50 is over 2.5 mg/kg.

In the case of `COCCc1ccc(-c2c(C)nc3c(-c4ccncc4)cc(C)nn23)cn1` [compound 24, 3-[6-(2-methoxyethyl)-3-pyridinyl]-2,6-dimethyl-8-(4-pyridinyl)-imidazo[1,2-b]pyridazine], in assay [1], the IC50 is 79.4 nM. The same compound showed an ED50 in assay [2] (not further tested) of over 2.5 mg/kg.

As to `CCOCCc1ccc(-c2c(C)nc3c(N4CCOCC4)ccnn23)cn1` [compound 25, 3-[6-(2-ethoxyethyl)-3-pyridinyl]-2-methyl-8-(4-morpholinyl)-imidazo[1,2-b]pyridazine], the IC50 in assay [1] was 33.9 nM. In addition, the ED50 in assay [2] (setting [3]) is over 2.5 mg/kg.

As for `COCCc1cc(-c2c(C)nc3c(N4CCOCC4)ccnn23)ccn1` [compound 26, 3-[2-(2-methoxyethyl)-4-pyridinyl]-2-methyl-8-(4-morpholinyl)-imidazo[1,2-b]pyridazine], the IC50 in assay [1] is 30.9 nM. For the same compound, in assay [2] (not further tested), the ED50 is over 2.5 mg/kg.

Turning to `Cc1nc2c(N3CCOCC3)ccnn2c1-c1ccc(C2CCOCC2)nc1` [compound 27, 2-methyl-8-(4-morpholinyl)-3-[6-(tetrahydro-2H-pyran-4-yl)-3-pyridinyl]-imidazo[1,2-b]pyridazine], the IC50 in assay [1] was 31.6 nM. In assay [2] (not further tested), the ED50 is over 2.5 mg/kg.

For the compound `CO[C@@H]1CCN(c2ccc(-c3c(C)nc4c(N5CCOCC5)ccnn34)cn2)C1` [compound 34, 3-[6-[(3R)-3-methoxy-1-pyrrolidinyl]-3-pyridinyl]-2-methyl-8-(4-morpholinyl)-imidazo[1,2-b]pyridazine], the IC50 in assay [1] is 117 nM. In addition, in assay [2] (not further tested), the ED50 was over 2.5 mg/kg.

`COC(C)(C)Cn1cc(-c2c(C3CC3)nc3c(N4CCOCC4)ccnn23)cn1` [compound 38, 2-cyclopropyl-3-[1-(2-methoxy-2-methylpropyl)-1H-pyrazol-4-yl]-8-(4-morpholinyl)-imidazo[1,2-b]pyridazine]: in assay [1], the IC50 was 28.8 nM. Also, in assay [2] (not further tested), the ED50 is over 2.5 mg/kg.

With `Cc1ccc(-c2c(C)nc3c(N4CCOCC4)ccnn23)cn1` [compound 39, 2-methyl-3-(6-methyl-3-pyridinyl)-8-(4-morpholinyl)-imidazo[1,2-b]pyridazine], the IC50 in assay [1] is 70.8 nM. In assay [2] (not further tested), this compound showed an ED50 of over 2.5 mg/kg.

As for `COC(C)(C)Cc1ccc(-c2c(C)nc3c(-c4ccncc4)cc(C4CC4)nn23)cn1` [compound 40, 6-cyclopropyl-3-[6-(2-methoxy-2-methylpropyl)-3-pyridinyl]-2-methyl-8-(4-pyridinyl)-imidazo[1,2-b]pyridazine], the IC50 in assay [1] was 117 nM. Besides, the ED50 in assay [2] (not further tested) is over 2.5 mg/kg.

Take `COCCOc1ccc(-c2c(C)nc3c(N4CCOCC4)cc(C4CC4)nn23)cn1` [compound 41, 6-cyclopropyl-3-[6-(2-methoxyethoxy)-3-pyridinyl]-2-methyl-8-(4-morpholinyl)-imidazo[1,2-b]pyridazine]: the IC50 in assay [1] was 407 nM. This compound showed an ED50 in assay [2] (not further tested) of over 2.5 mg/kg.

As for `COCCOc1cncc(-c2c(C)nc3c(N4CCOCC4)cc(C4CC4)nn23)c1` [compound 42, 6-cyclopropyl-3-[5-(2-methoxyethoxy)-3-pyridinyl]-2-methyl-8-(4-morpholinyl)-imidazo[1,2-b]pyridazine], in assay [1], the IC50 is 93.3 nM. The compound further showed an ED50 in assay [2] (not further tested) of over 2.5 mg/kg.
